Reference: the supplement of paper PMC10307832

What was measured:
Test in all cases: relative viability (nuclei count vs DMSO), 5 days (fraction); higher = more cells survive
[1] = compound: C[C@@H](N)c1ccc(C(=O)Nc2ccnc3[nH]ccc23)cc1 + C[C@]1(O)C[C@@H](c2nc(-c3ccc4ccc(-c5ccccc5)nc4c3)c3c(N)nccn32)C1 [Linsitinib] (partner 1 µM)
Method in brief: (§1)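 For relative viability, nuclei counts in treated wells were divided by those in vehicle wells. Lung cancer cell lines had been pin-tool dosed in 1536-well plates the day after seeding and cultured for 5 days, then fixed and stained in one step (final 0.05% Triton X-100, 1% formaldehyde, 1 ug/ml Hoechst) and imaged at 4×. Doses were one drug alone or a fixed anchor-drug dose plus five library-drug doses (not always all listed) in √10 steps, and values are duplicate-plate medians.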

[2] = compound: C1CNCCC1C2=CC(=NN2)C3=CC=NC=C3 + O=C(CCCCCCC(=O)Nc1ccccc1)NO [Vorinostat] (partner 1 µM)
Method in brief: as §1

[3] = compound: C1CNCCC1C2=CC(=NN2)C3=CC=NC=C3 + Cc1cc(Nc2cc(N3CCN(C)CC3)nc(Sc3ccc(NC(=O)C4CC4)cc3)n2)n[nH]1 [Tozasertib] (partner 0.1 µM)
Method in brief: as §1

Tanzisertib + Phenformin = compound: O[C@H]1CC[C@H](Nc2ncc3nc(Nc4c(F)cc(F)cc4F)n([C@H]4CCOC4)c3n2)CC1 [Tanzisertib] + N=C(N)NC(=N)NCCc1ccccc1 [Phenformin] (partner 250 µM)
Method in brief: as §1

| Cell Line | relative viability ([1]; first compound 0.04 µM) | relative viability ([1]; first compound 0.1265 µM) | relative viability ([1]; first compound 0.4 µM) | relative viability ([1]; first compound 1.265 µM) | relative viability ([1]; first compound 4 µM) | relative viability ([2]; first compound 0.08 µM) | relative viability ([2]; first compound 0.8 µM) | relative viability ([2]; first compound 2.53 µM) | relative viability ([2]; first compound 8 µM) | relative viability ([3]; first compound 0.08 µM) | relative viability ([3]; first compound 0.8 µM) | relative viability ([3]; first compound 2.53 µM) | relative viability ([3]; first compound 8 µM) | relative viability (Tanzisertib + Phenformin; first compound 0.08 µM) | relative viability (Tanzisertib + Phenformin; first compound 0.253 µM) | relative viability (Tanzisertib + Phenformin; first compound 0.8 µM) | relative viability (Tanzisertib + Phenformin; first compound 2.53 µM) | relative viability (Tanzisertib + Phenformin; first compound 8 µM) |
| --- | --- | --- | --- | --- | --- | --- | --- | --- | --- | --- | --- | --- | --- | --- | --- | --- | --- | --- |
| HCC-44 | 0.703 | 0.682 | 0.708 | 0.713 | 0.532 | 1.11 | 1.2 | 0.998 | 1.11 | 0.873 | 1.32 | 1.1 | 0.897 | 0.171 | 0.297 | 0.269 | 0.306 | 0.0849 |
| HCC-78 | 0.776 | 0.518 | 0.804 | 0.735 | 0.424 | 0.404 | – | 0.441 | 0.475 | 0.439 | 0.325 | 0.459 | 0.392 | 0.739 | 0.848 | 0.782 | 0.597 | 0.512 |
| HCC-366 | 0.615 | 0.63 | 0.785 | – | 0.49 | 0.444 | 0.36 | 0.426 | 0.372 | 0.214 | 0.137 | 0.182 | 0.123 | 0.671 | 0.599 | 0.651 | 0.681 | 0.646 |
| HCC-827 | 0.972 | 0.94 | 0.911 | 0.925 | 0.843 | 0.698 | 0.861 | 1.03 | 0.912 | 0.389 | 0.435 | 0.453 | 0.432 | 0.409 | 0.417 | 0.398 | 0.382 | 0.242 |
| HOP-62 | 0.972 | 0.983 | 0.88 | 1.03 | 0.954 | 0.606 | 0.635 | 0.733 | 0.6 | 0.416 | 0.407 | 0.386 | 0.383 | 0.758 | 0.709 | 0.671 | 0.671 | 0.729 |
| IA-LM | 0.801 | 0.665 | 0.847 | 0.904 | 0.759 | 0.974 | 1.06 | 0.95 | 1.03 | – | – | – | – | – | – | – | – | – |
| LC-2-ad | 0.849 | 0.922 | 0.877 | 0.83 | 0.615 | 0.723 | 0.757 | 0.741 | 0.658 | – | 0.445 | 0.485 | 0.467 | 0.648 | 0.58 | 0.638 | 0.651 | 0.433 |
| LCLC-97TM1 | 0.192 | 0.2 | 0.202 | 0.29 | 0.349 | 0.749 | 0.701 | 0.909 | 0.653 | 0.225 | 0.177 | 0.256 | 0.293 | 0.471 | 0.425 | 0.38 | 0.476 | 0.524 |
| LCLC-103H | 1.18 | 1.06 | 1.2 | 1.01 | 1.11 | 0.822 | 0.752 | 0.831 | 0.757 | 0.469 | 0.534 | 0.459 | 0.443 | 0.375 | 0.327 | 0.309 | 0.345 | 0.343 |
| NCI-H522 | – | – | – | – | – | 0.911 | 0.762 | 0.998 | 1.04 | 0.519 | 0.518 | 0.587 | 0.562 | 0.783 | 0.57 | 0.667 | 0.677 | 0.572 |
| NCI-H1299 | 0.945 | 0.977 | 0.939 | 0.956 | 0.85 | – | – | – | – | – | – | – | – | – | – | – | – | – |
| NCI-H1563 | 1.25 | 1.16 | 1.14 | 1.13 | 1.27 | – | – | – | – | – | – | – | – | 0.662 | 0.688 | 0.654 | 0.681 | 0.624 |
| NCI-H1623 | – | – | – | – | – | – | – | – | – | 0.434 | 0.446 | 0.439 | 0.454 | 0.587 | 0.574 | 0.639 | 0.572 | 0.551 |
| NCI-H1648 | – | – | – | – | – | 0.381 | 0.518 | – | 0.488 | 0.425 | 0.475 | 0.461 | 0.508 | – | – | – | – | – |
| NCI-H1650 | – | – | – | – | – | 0.46 | 0.597 | 0.804 | 0.489 | 0.393 | 0.446 | 0.433 | 0.392 | 0.317 | 0.425 | 0.407 | 0.307 | 0.314 |
| NCI-H1703 | 0.695 | 0.964 | 0.54 | – | 0.536 | – | – | – | – | – | – | – | – | – | – | – | – | – |
| NCI-H1792 | 0.631 | 0.475 | 0.558 | 0.676 | 0.572 | – | – | – | – | – | – | – | – | 0.233 | 0.467 | 0.544 | 0.38 | 0.475 |
| NCI-H2170 | – | – | – | – | – | 0.658 | 0.825 | 0.771 | 0.762 | 0.667 | 0.621 | 0.775 | 0.681 | 0.406 | 0.451 | 0.457 | 0.411 | 0.392 |
| NCI-H2342 | – | – | – | – | – | 0.706 | 0.71 | 0.774 | 0.809 | 0.437 | 0.491 | 0.537 | 0.518 | 0.618 | 0.643 | 0.57 | 0.557 | 0.532 |
| SW 900 | – | – | – | – | – | 0.521 | – | 0.684 | 0.563 | 0.648 | 0.623 | 0.514 | 0.681 | 0.725 | 0.601 | 0.749 | 0.587 | 0.512 |
